Measurements reported in US8895725B2, “Use of 9, 10-anthraquinone compounds” (Shanghai Institute of Pharmaceutical Industry, priority 2008, dated 2014).
≈ marks a conversion by molar mass, not a printed value. Entries after “also recorded” stand apart in the source; their conditions may differ. Read-outs that look alike come from different tables or passages of the source.

Legend:
HCV = assay: Focus reduction assay of HCV infection; assay type: cell-based; conditions: for inhibition effect towards HCV: summary in words; for inhibition at 100 µg/mL: 100 μg/ml; for Inhibition Rate of the number of Virus foci (%): cells pre-incubated 1 hour with interferon
Protocol: The stock solutions with a concentration of 20 mg/ml were prepared by dissolving the samples in DMSO and were kept at 4° C. When testing, the stored stock solutions were diluted to 5 mg/ml and 2 mg/ml with DMSO.
(§1) The derivative cell line of Huh7 and the virus strain of HCV were used in this experiment. The virus strain can produce high-titer and infectious virus particles of HCV in the cells.
(§2) The cells were inoculated in 96-well flat-bottomed plates at a concentration of 1×10^4/100 μl/well and cultivated overnight. The HCV supernatant was diluted to 1×10^3 ffu/ml with complete medium (DMEM contains 10% fetal bovine serum, 100 U/ml penicillin and 100 μg/ml streptomycin) and infected the cells at 50 ffu/well.
The sample solutions with different concentrations (2 mg/ml and 1 mg/ml) were respectively diluted in complete medium at a volume ratio of 1:50 to reach the concentrations of 40 μg/ml and 20 μg/ml. […] After 1 hour of incubation at room temperature, the culture medium in the 96-well flat-bottomed plates was discarded, then 100 μl of the above mixed solution was added to each well, and then was cultured for 8 hours in 37° C. incubator containing 5% CO2. After that, the supernatant was discarded, then was washed once with phosphate buffer without calcium or magnesium ion (DPBS). 150 μl of fresh complete medium was added to each well, and then was cultured for 64 hours in 37° C. incubator containing 5% CO2. 150 μl of 4% paraformaldehyde (PFA) was added to each well, and was fixed at room temperature for 15 min. The supernatant was discarded, then was washed with DPBS for 3 times, and Immune fluorescence staining was conducted with anti HCV-E2 human monoclonal antibody and anti-human secondary antibody labeled by immunofluorescein, then was watched with fluorescence microscope and the amounts of virus colony were recorded.
In the negative control group, DMSO was used instead of the sample solutions, and other conditions were the same as that in sample testing.
The solution of the interferon was diluted to 5, 50 and 500 IU/ml respectively with complete medium, and were hatched for 1 hour with cells, then diluted virus solution was added. Other conditions were the same as that in the extract testing. The inhibition rate=(the amount of virus colony in the negative control group−the amount of viruscolony in the experimental group)/the amount of virus colony in the negative control group×100%.

[1] = test system: derivative cell line of Huh7; assay: Cytotoxicity (cell density versus negative control group); assay type: cell-based
Protocol: as §1, §2
Instructions to Cytotoxicity: Noncytotoxic=the cell density of the experimental group/the cell density of the negative control group[…] Cytotoxicity=the cell density of the experimental group/the cell density of the negative control group<80%

[2] = Hepatitis C virus, Huh-7, read-out: Inhibition Rate of the number of Virus foci (%)
[3] = Hepatitis C virus, Huh-7, 10 μg/ml, Huh7 derivative cells, read-out: Inhibition Rate of the number of Virus foci (%)
[4] = Hepatitis C virus, Huh-7, 5 μg/ml, Huh7 derivative cells, read-out: Inhibition Rate of the number of Virus foci (%)
[5] = Hepatitis C virus, Huh-7, 20 μg/ml, Huh7 derivative cells, read-out: Inhibition Rate of the number of Virus foci (%)
[6] = Hepatitis C virus, Huh-7, Huh7 derivative cells, read-out: Inhibition Rate of the number of Virus foci (%)

Compound: O=C1c2ccccc2C(=O)c2c(O)ccc(O)c21 [1,4-dihydroxyl-9,10-anthraquinone]
- inhibition at 5 µg/mL (HCV; [2]): 81%
- inhibition effect towards HCV (HCV): obvious inhibition effect
- Cytotoxicity ([1]; 5 μg/ml): None

Compound: O=C1c2cccc(O)c2C(=O)c2c(O)cccc21 [1,8-Dihydroxyl-9,10-anthraquinone, 1,8-dihydroxyl-9,10-anthraquinone]
- inhibition at 0.04 µg/mL (HCV; Hepatitis C virus, Huh-7, 0.04 μg/ml, Huh7 derivative cells, read-out: Inhibition Rate of the number of Virus foci (%)): 45%
- inhibition at 0.2 µg/mL (HCV; Hepatitis C virus, Huh-7, 0.2 μg/ml, Huh7 derivative cells, read-out: Inhibition Rate of the number of Virus foci (%)): 100%
- inhibition effect towards HCV (HCV): obvious inhibition effect

Compound: O=C1c2ccccc2C(=O)c2c1cc(S(=O)(=O)[O-])c(O)c2O.[Na+] [Alizarin Red S, 1,2-dihydroxylanthraquinone-3-sulfonate]
- inhibition at 10 µg/mL (HCV; [3]): 22%
- inhibition effect towards HCV (HCV): obvious inhibition effect

Compound: O=C1c2ccccc2C(=O)c2c1ccc(O)c2O [Alizarin, 1,2-dihydroxyl-9,10-anthraquinone]
- inhibition at 10 µg/mL (HCV; [2]): 31%
- inhibition effect towards HCV (HCV): obvious inhibition effect
- Cytotoxicity ([1]; 10 μg/ml): None

Compound: O=C1c2cccc(O)c2C(=O)c2c(O)cc(CO)cc21 [Aloe-emodin, 1,8-dihydroxyl-3-hydroxymethyl anthraquinone]
- inhibition at 5 µg/mL (HCV; [4]): 95%
- inhibition at 20 µg/mL (HCV; [5]): 100%
- inhibition effect towards HCV (HCV): obvious inhibition effect

Compound: O=C1c2ccccc2C(=O)c2ccccc21 [Anthraquinone, 9,10-anthraquinone]
- inhibition at 5 µg/mL (HCV; [4]): 44%
- inhibition effect towards HCV (HCV): obvious inhibition effect

Compound: O=c1cc(-c2ccc(O)cc2)oc2cc(O)cc(O)c12 [Apigenin, reference compound]
- inhibition at 5 µg/mL (HCV; [4]): 11%
- inhibition at 20 µg/mL (HCV; [5]): 47%

Compound: Cc1cc(O)c2c(c1)C(=O)c1cccc(O)c1C2=O [Chrysophanic acid, 1,8-dihydroxyl-6-methyl anthraquinone]
- inhibition at 5 µg/mL (HCV; [4]): 21%
- inhibition at 10 µg/mL (HCV; [3]): 17%
- inhibition at 20 µg/mL (HCV; [5]): 48%
- inhibition effect towards HCV (HCV): obvious inhibition effect

Compound: Cc1cc(O)c2c(c1)C(=O)c1cc(O)cc(O)c1C2=O [Emodin, 1,3,8-dihydroxyl-6-methyl anthraquinone]
- inhibition at 5 µg/mL (HCV; [4]): 52%
- inhibition at 10 µg/mL (HCV; [3]): 79%
- inhibition at 20 µg/mL (HCV; [5]): 99%
- inhibition effect towards HCV (HCV): obvious inhibition effect

Compound: Cc1cc(O[C@@H]2OC(CO)[C@@H](O)C(O)C2O)c2c(c1)C(=O)c1cc(O)cc(O)c1C2=O (stereo partly drawn) [Emodin-8-O-β-D-glucoside, emodin-8-O-β-D-glucoside]
- inhibition at 100 µg/mL (HCV; [6]): 40%
- inhibition effect towards HCV (HCV): obvious inhibition effect
- Cytotoxicity ([1]; 100 μg/ml): None

Compound: COc1cc(O)c2c(c1)C(=O)c1cc(C)cc(O)c1C2=O [Physcion, 1,8-dihydroxyl-3-methoxy-6-methyl anthraquinone]
- IC50 (HCV; Hepatitis C virus): 8 ng/mL (≈ 0.0281 µM)
- inhibition at 5 µg/mL (HCV; [4]): 100%
- inhibition at 20 µg/mL (HCV; [5]): 100%
- anti-HCV activity compared with the other compounds (HCV; ranking in words): better than other compounds; also recorded: the best
- inhibition effect towards HCV (HCV): obvious inhibition effect
- Cytotoxicity ([1]; 5 μg/ml): None
- Cytotoxicity ([1]; 20 μg/ml): None

Compound: COc1cc(O)c2c(c1)C(=O)c1cc(C)cc(O[C@@H]3OC(CO)[C@@H](O)C(O)C3O)c1C2=O (stereo partly drawn) [Physcion-8-O-β-D-glucoside, physcion-8-O-β-D-glucoside]
- inhibition at 100 µg/mL (HCV; [6]): 40%
- inhibition effect towards HCV (HCV): obvious inhibition effect
- Cytotoxicity ([1]; 100 μg/ml): None

Compound: O=C(O)c1cc(O)c2c(c1)C(=O)c1cccc(O)c1C2=O [Rhein, 1,8-dihydroxyl-3-carboxyl anthraquinone]
- inhibition at 5 µg/mL (HCV; [2]): 44%
- inhibition at 20 µg/mL (HCV; [2]): 82%
- inhibition effect towards HCV (HCV): obvious inhibition effect
- Cytotoxicity ([1]; 5 μg/ml): None
- Cytotoxicity ([1]; 20 μg/ml): None

Compound: α-interferon [reference compound]
- Inhibition Rate of the number of Virus foci (%) (HCV; 5 IU/ml): 53%
- Inhibition Rate of the number of Virus foci (%) (HCV; 50 IU/ml): 79%
- Inhibition Rate of the number of Virus foci (%) (HCV; 500 IU/ml): 98%
